The values below are quoted from earlier work in patent publication US9029390B2, “Oral composition containing an antiplatelet agent of the thienopyridine family in the form of free base” (CLL Pharma, priority 2008, dated 2015).

The conditions of data set [1]: patients who received clopidogrel, study CAPRIE.

The structures appear in SMILES notation.

On to `COC(=O)[C@H](c1ccccc1Cl)N1CCc2sccc2C1` [clopidogrel free base, clopidogrel], for which the solubility in water result is recorded as “almost null”.

Consider `COC(=O)[C@H](c1ccccc1Cl)N1CCc2sccc2C1` [clopidogrel], for which, in data set [1], the “frequency of gastro-intestinal bleedings” value is 2.0% and the “gastro-intestinal bleedings having required a hospitalization” value is listed as 0.7%.
